Test system: HepG2 cells
Details: HepG2 conditioned medium, 10 μM, 24 h
Description: Ten million Snu398 or HepG2 cells per flask were plated in R10 medium in T150 tissue culture flasks and allowed to attach overnight. The following morning, medium was replaced with medium containing either DMSO or 10 μM LDHA inhibitor, and cells were incubated for 24 h at 37°C. The conditioned medium was collected and cells were washed, lifted by trypsinization and pelleted. Both medium and cell samples were submitted for mass spectroscopy (MS) analysis of over 500 individual metabolites. All samples were prepared in replicates of five.

COc1ncc(-c2ccc3c(Nc4cc(C(=O)O)cc(C5CCCC5)c4)c(S(=O)(=O)NC4CC4)cnc3c2)c(OC)n1 [Compound 2]
0.91: fold change 1-palmitoleoylglycerophosphocholine* | fold change 2-aminobutyrate | fold change X - 12435 | fold change p-cresol sulfate
1.38: fold change X - 12339
0.74: fold change X - 13857
1.17: fold change X - 15558 | fold change docosapentaenoate (n3 DPA; 22:5n3)
1.08: fold change X - 04133
0.56: fold change X - 10634
1.10: fold change N6-carbamoylthreonyladenosine
0.58: fold change X - 09026
0.92: fold change 4-acetamidobutanoate | fold change acetylphosphate | fold change docosahexaenoate (DHA; 22:6n3) | fold change erythritol | fold change palmitoyl sphingomyelin | fold change pyridoxate
1.13: fold change X - 04135 | fold change X - 15562 | fold change X - 15563 | fold change X - 16439 | fold change X - 17430 | fold change ethanolamine | fold change tetradecanedioate
0.43: fold change X - 10476
1.21: fold change X - 08889
0.61: fold change serine
1.19: fold change X - 13491
0.30: fold change asparagine
1.06: fold change C-glycosyltryptophan* | fold change choline | fold change fructose | fold change glycylvaline | fold change kynurenate
0.99: fold change 3-methyl-2-oxobutyrate | fold change N-acetylornithine | fold change X - 03090 | fold change X - 06911 | fold change alanine | fold change erythronate* | fold change folate | fold change p-aminobenzoate (PABA) | fold change phosphate | fold change threitol | fold change tyrosine
0.96: fold change 2-oleoylglycerophosphocholine* | fold change 3-indoxyl sulfate | fold change 4-methyl-2-oxopentanoate | fold change X - 14056 | fold change alanylglutamine | fold change biotin | fold change glutamine | fold change glycocholate | fold change methionine | fold change pseudouridine | fold change threonine
8.06: fold change X - 02952
1.18: fold change X - 02973 | fold change X - 10740 | fold change X - 16116
0.79: fold change beta-hydroxypyruvate | fold change caprylate (8:0) | fold change ornithine
0.94: fold change 1-oleoylglycerophosphocholine | fold change 1-palmitoylglycerophosphocholine | fold change 2-methylbutyroylcarnitine | fold change 3-methyl-2-oxovalerate | fold change creatinine
0.77: fold change X - 12792
1.16: fold change 2-stearoylglycerophosphocholine*
0.95: fold change 1-stearoylglycerophosphocholine | fold change X - 12749 | fold change X - 13103 | fold change X - 13166 | fold change X - 16206 | fold change acetylcarnitine | fold change glycerophosphorylcholine (GPC) | fold change heme*
1.05: fold change X - 13553 | fold change glycerate
0.78: fold change X - 06126 | fold change X - 12117 | fold change cysteine
1.15: fold change 3-(4-hydroxyphenyl)lactate | fold change X - 12729 | fold change X - 15559
1.09: fold change N-acetylneuraminate | fold change X - 04357 | fold change X - 12013 | fold change glycerol | fold change scyllo-inositol
0.82: fold change X - 13494 | fold change serotonin (5HT)
0.90: fold change butyrylcarnitine | fold change putrescine | fold change trans-4-hydroxyproline
0.73: fold change gamma-glutamylvaline
0.55: fold change glycylglycine
1.02: fold change 5-oxoproline | fold change N1-methyladenosine | fold change X - 17112 | fold change creatine | fold change gamma-glutamylisoleucine* | fold change histidine | fold change isoleucine | fold change malate | fold change phenylacetylglycine
1.37: fold change pyruvate
1.07: fold change X - 12786 | fold change X - 16444 | fold change arachidonate (20:4n6) | fold change succinate
0.53: fold change X - 04252 | fold change sorbitol
1.11: fold change X - 08895 | fold change X - 13104 | fold change X - 13496
1.47: fold change glycerol 3-phosphate (G3P)
0.97: fold change HEPES | fold change X - 12015 | fold change betaine | fold change citrate | fold change dimethylarginine (SDMA + ADMA) | fold change hydroquinone | fold change phenol red | fold change pipecolate
1.28: fold change cysteine-glutathione disulfide
1.14: fold change X - 15808
0.57: fold change mannitol
0.80: fold change X - 04148 | fold change fumarate | fold change isovalerate | fold change nicotinamide
0.93: fold change 2-hydroxyglutarate | fold change X - 10869 | fold change X - 12602 | fold change X - 14588 | fold change phenol sulfate | fold change proline | fold change taurodeoxycholate | fold change uridine
0.89: fold change 2-hydroxybutyrate (AHB) | fold change lactate
0.70: fold change 2'-O-methylguanosine | fold change N-acetylaspartate (NAA) | fold change lysine
0.87: fold change N1-methylguanosine | fold change X - 09008 | fold change citrulline | fold change gamma-glutamylleucine | fold change glucose | fold change glycine
1.03: fold change X - 11081 | fold change carnitine | fold change indolelactate | fold change leucine | fold change tryptophan
1.41: fold change beta-alanine
0.86: fold change X - 12776 | fold change X - 14574 | fold change X - 16103
0.15: fold change X - 08172
0.98: fold change 2-palmitoylglycerophosphocholine* | fold change X - 13115 | fold change arginine | fold change deoxycarnitine | fold change hippurate | fold change isobutyrylcarnitine | fold change phenylalanine | fold change pro-hydroxy-pro | fold change riboflavin (Vitamin B2) | fold change valine
0.88: fold change 4-guanidinobutanoate | fold change uracil | fold change xylitol
1.29: fold change isovalerylcarnitine
1.32: fold change X - 15678
0.81: fold change 2-methylbutyrylglycine
0.85: fold change allantoin | fold change gamma-glutamylphenylalanine | fold change glycylleucine | fold change myo-inositol
1.00: fold change X - 04015 | fold change X - 13100 | fold change X - 13110 | fold change X - 13507 | fold change X - 13581 | fold change cysteine sulfinic acid | fold change glutamate | fold change homostachydrine* | fold change kynurenine | fold change pantothenate | fold change propionylcarnitine | fold change taurocholate | fold change thiamin (Vitamin B1)
0.84: fold change X - 13483 | fold change aspartate | fold change beta-hydroxyisovalerate | fold change hexadecanedioate
0.75: fold change ribitol
1.04: fold change 3-dehydrocarnitine* | fold change X - 11533 | fold change X - 12799 | fold change X - 16200 | fold change dimethyl sulfoxide* | fold change pyridoxine (Vitamin B6)
0.76: fold change X - 10475
0.72: fold change X - 12216 | fold change arabitol
1.27: fold change valerylcarnitine
0.83: fold change X - 11315 | fold change X - 12944 | fold change caproate (6:0) | fold change urea
1.01: fold change 6'-sialyllactose | fold change Isobar: 2-propylpentanoic acid, 2-ethylhexanoic acid | fold change X - 11787 | fold change X - 13117 | fold change aspartylleucine | fold change catechol sulfate | fold change glycochenodeoxycholate | fold change glycyltyrosine
1.12: fold change X - 11593 | fold change lysylleucine
0.49: fold change X - 05907 | fold change cyclo(leu-ala)

Source: article PMC4178217, “Quinoline 3-sulfonamides inhibit lactate dehydrogenase A and reverse aerobic glycolysis in cancer cells” (Cancer & Metabolism, 2013)
